Tested on: Scenedesmus cavuolatus (CS, Chlorella fusca)
Test: Determination of the resistance to colonization by algae (render coat on paper, media for algae)
Format: cell-based
Conditions: +0.25% benzalkonium chloride, 50% strength, 5 month storage
Method: The unfinished material (commercially available render, pH 11.5) is treated, in separate batches, with different concentrations of the preservative A according to the invention.
The test was carried out once after the samples had been prepared and then after storage in wet render for 3 months or 5 months.
Laboratory method for determining the resistance of facade coats to colonization by algae. In this method, facade coats on standardized paper are used as the test substrate, and Scenedesmus cavuolatus (CS, Chlorella fusca) as the test alga.
The experiments are carried out in Petri dishes on media for algae.
1000 g of the material to be finished were, in separate batches, mixed with various concentrations of the test microbicide and homogenized using a suitable stirrer.
Paper supports (Schleicher & Schüll No. 2589 B/X 24078) 90×270 mm in size are coated with the test material. The paint or render samples are applied as a coat to wet-layer thickness of 250 μm, using a knife. The knife must have an opening of at least 6.5 cm in width. In the case of renders, the layer thickness depends on the particle size, as is the case under practice conditions. The coated supports, hereinbelow referred to as test specimens, are subsequently dried for 5 days in a horizontal position. […]
The colonization of the samples with algae is examined and evaluated after 2 weeks. […]

Substance: benzalkonium chloride [benzalkonium chloride, 50% strength]
- Inhibitory zone in mm (first group of rows (leaching not given, presumably none)): >18 mm
- Inhibitory zone in mm (second group of rows (leaching not given, presumably 72 h)): >18 mm

— patent US20070093538A1, “Preparation for the fungicidal and algicidal finish of alkaline coating compositions” (priority 2005, published 2007)
